Values joined by “and” are separate entries in the source; they are usually repeats but may differ in a detail not shown here. Equal values may be shown once. Inconclusive results and toxic doses are left out.
Tested on: L1210 leukemia ip in BDF1 mice, survival T/C
Assay: NCI In Vivo Anticancer Drug Screen. Data for tumor model L1210 Leukemia (intraperitoneal) in B6D2F1 (BDF1) mice
Details: endpoint: mean survival time, higher = longer survival
Outline: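 Value reflects the ratio of survival in compound-treated mice to survival in vehicle-treated controls, with both groups carrying the same transplanted tumor.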

[1] = dose: 100.0 mg/kg/injection, schedule: Q01DX009 (ip), vehicle: Klucel (hydroxypropylcellulose) (HPC)
[2] = dose: 200.0 mg/kg/injection, schedule: Q01DX009 (ip), vehicle: Klucel (hydroxypropylcellulose) (HPC)
[3] = dose: 400.0 mg/kg/injection, schedule: Q01DX009 (ip), vehicle: Klucel (hydroxypropylcellulose) (HPC)
[4] = dose: 100.0 mg/kg/injection, schedule: Q01DX001 (ip), vehicle: saline
[5] = dose: 100.0 mg/kg/injection, schedule: Q04DX003 (ip), vehicle: Klucel (hydroxypropylcellulose) (HPC)
[6] = dose: 200.0 mg/kg/injection, schedule: Q01DX001 (ip), vehicle: saline
[7] = dose: 200.0 mg/kg/injection, schedule: Q04DX003 (ip), vehicle: Klucel (hydroxypropylcellulose) (HPC)
[8] = dose: 400.0 mg/kg/injection, schedule: Q01DX001 (ip), vehicle: saline
[9] = dose: 100.0 mg/kg/injection, schedule: Q01DX009 (ip), vehicle: saline with Tween-80
[10] = dose: 100.0 mg/kg/injection, schedule: Q04DX002 (ip), vehicle: saline with Tween-80
[11] = dose: 200.0 mg/kg/injection, schedule: Q01DX009 (ip), vehicle: saline with Tween-80
[12] = dose: 200.0 mg/kg/injection, schedule: Q04DX002 (ip), vehicle: saline with Tween-80
[13] = dose: 200.0 mg/kg/injection, schedule: Q04DX003 (ip), vehicle: saline with Tween-80
[14] = dose: 400.0 mg/kg/injection, schedule: Q04DX002 (ip), vehicle: saline with Tween-80
[15] = dose: 400.0 mg/kg/injection, schedule: Q04DX003 (ip), vehicle: saline with Tween-80

Question: Which results are given for O=C(Nc1ccc(C2=NCCN2)cc1)Nc1cccc(C(=O)Nc2ccc(C3=NCCN3)cc2)c1?
Answer: T/C (dose: 1.0 mg/kg/injection, schedule: Q01DX Z (ip), vehicle: carboxymethylcellulose (CMC)): 106 % of control; T/C (dose: 2.0 mg/kg/injection, schedule: Q01DX Z (ip), vehicle: carboxymethylcellulose (CMC)): 117 % of control; T/C (dose: 3.75 mg/kg/injection, schedule: Q01DX Z (ip), vehicle: saline): 97 % of control; T/C (dose: 4.0 mg/kg/injection, schedule: Q01DX Z (ip), vehicle: carboxymethylcellulose (CMC)): 122 % of control; T/C (dose: 7.5 mg/kg/injection, schedule: Q01DX Z (ip), vehicle: saline): 100 % of control; T/C (dose: 8.0 mg/kg/injection, schedule: Q01DX Z (ip), vehicle: carboxymethylcellulose (CMC)): 150 % of control and 158 % of control; T/C (dose: 15.0 mg/kg/injection, schedule: Q01DX Z (ip), vehicle: saline): 110 % of control; T/C (dose: 16.0 mg/kg/injection, schedule: Q01DX Z (ip), vehicle: carboxymethylcellulose (CMC)): 225 % of control; T/C (dose: 30.0 mg/kg/injection, schedule: Q01DX Z (ip), vehicle: carboxymethylcellulose (CMC)): 154 % of control; T/C (dose: 31.0 mg/kg/injection, schedule: Q01DX Z (ip), vehicle: carboxymethylcellulose (CMC)): 250 % of control; T/C (dose: 62.0 mg/kg/injection, schedule: Q01DX Z (ip), vehicle: carboxymethylcellulose (CMC)): 207 % of control and 320 % of control; T/C (dose: 120.0 mg/kg/injection, schedule: Q01DX Z (ip), vehicle: carboxymethylcellulose (CMC)): 198 % of control; T/C (dose: 120.0 mg/kg/injection, schedule: Q01DX Z (oral), vehicle: saline): 101 % of control; T/C (dose: 125.0 mg/kg/injection, schedule: Q01DX Z (ip), vehicle: carboxymethylcellulose (CMC)): 200 % of control; T/C (dose: 240.0 mg/kg/injection, schedule: Q01DX Z (ip), vehicle: saline): 233 % of control; T/C (dose: 240.0 mg/kg/injection, schedule: Q01DX Z (oral), vehicle: saline): 101 % of control; T/C (dose: 480.0 mg/kg/injection, schedule: Q01DX Z (oral), vehicle: saline): 104 % of control

Question: N#C/C(=C\c1cccs1)c1ccc([N+](=O)[O-])cc1 was tested. Which T/C [1] did it give?
Answer: 96 % of control

Question: What about the T/C [2] of the same molecule?
Answer: 86 % of control

Question: And the T/C [3]?
Answer: 91 % of control

Question: For O=c1oc2ccc([N+](=O)[O-])cc2o1, which T/C (dose: 75.0 mg/kg/injection, schedule: Q01DX001 (ip), vehicle: acetone) is on record?
Answer: 108 % of control

Question: For CO/N=C1/C=C(C)C(=O)C(C)=C1C, which T/C (dose: 50.0 mg/kg/injection, schedule: Q01DX001 (ip), vehicle: saline) is on record?
Answer: 94 % of control

Question: What about the T/C [4] of the same molecule?
Answer: 97 % of control

Question: What about the T/C [1] of the same molecule?
Answer: 102 % of control

Question: What about the T/C [5] of the same molecule?
Answer: 97 % of control

Question: What about the T/C [6] of the same molecule?
Answer: 105 % of control

Question: And the T/C [2]?
Answer: 98 % of control

Question: And the T/C [7]?
Answer: 92 % of control

Question: And the T/C [8]?
Answer: 94 % of control

Question: What about the T/C [3] of the same molecule?
Answer: 95 % of control

Question: What about the T/C (dose: 400.0 mg/kg/injection, schedule: Q04DX003 (ip), vehicle: Klucel (hydroxypropylcellulose) (HPC)) of the same molecule?
Answer: 101 % of control

Question: With CSc1ccc(NC(=O)Oc2ccccn2)cc1 as the molecule, how does the T/C (dose: 100.0 mg/kg/injection, schedule: Q01DX001 (ip), vehicle: saline with Tween-80) read?
Answer: 89 % of control

Question: And the T/C [9]?
Answer: 97 % of control

Question: And the T/C [10]?
Answer: 93 % of control and 94 % of control

Question: And the T/C (dose: 200.0 mg/kg/injection, schedule: Q01DX001 (ip), vehicle: saline with Tween-80)?
Answer: 103 % of control

Question: What about the T/C [11] of the same molecule?
Answer: 90 % of control

Question: And the T/C [12]?
Answer: 96 % of control and 114 % of control

Question: And the T/C [13]?
Answer: 88 % of control

Question: And the T/C (dose: 400.0 mg/kg/injection, schedule: Q01DX001 (ip), vehicle: saline with Tween-80)?
Answer: 105 % of control

Question: And the T/C [14]?
Answer: 95 % of control and 96 % of control

Question: What about the T/C [15] of the same molecule?
Answer: 97 % of control

Question: c1ccc2c(c1)C1CCC2c2ccccc21 was tested. Which T/C [9] did it give?
Answer: 106 % of control

Question: What about the T/C (dose: 100.0 mg/kg/injection, schedule: Q04DX003 (ip), vehicle: saline with Tween-80) of the same molecule?
Answer: 95 % of control

Question: And the T/C [11]?
Answer: 102 % of control

Question: What about the T/C [13] of the same molecule?
Answer: 98 % of control

Question: And the T/C (dose: 400.0 mg/kg/injection, schedule: Q01DX009 (ip), vehicle: saline with Tween-80)?
Answer: 97 % of control

Question: What about the T/C [15] of the same molecule?
Answer: 92 % of control

Question: How did the T/C [10] turn out when CCN(C(=O)c1ccc([N+](=O)[O-])cc1)C(c1ccco1)P(=O)(c1ccccc1)c1ccccc1 (centres undefined) was run?
Answer: 87 % of control

Question: What about the T/C [12] of the same molecule?
Answer: 87 % of control

Question: What about the T/C [14] of the same molecule?
Answer: 93 % of control

Question: With CC(=O)OCC/C(=C/c1cc2ccccc2c2ccccc12)[N+](=O)[O-] as the molecule, how does the T/C [4] read?
Answer: 100 % of control

Question: And the T/C [6]?
Answer: 105 % of control

Question: And the T/C [8]?
Answer: 113 % of control

Question: What does the source list for Cn1c2ccccc2c2nnc(NCCCCO)nc21?
Answer: T/C (dose: 100.0 mg/kg/injection, schedule: Q04DX002 (ip), vehicle: saline): 106 % of control; T/C (dose: 200.0 mg/kg/injection, schedule: Q04DX002 (ip), vehicle: saline): 97 % of control; T/C (dose: 400.0 mg/kg/injection, schedule: Q04DX002 (ip), vehicle: saline): 101 % of control

Question: Which results are given for CC/C(=C(\CC)c1ccc(OCC(=O)OCCNCCCl)cc1)c1ccc(OCC(=O)OCCNCCCl)cc1?
Answer: T/C (dose: 6.25 mg/kg/injection, schedule: Q04DX002 (ip), vehicle: saline): 94 % of control; T/C (dose: 12.5 mg/kg/injection, schedule: Q04DX002 (ip), vehicle: saline): 97 % of control; T/C (dose: 25.0 mg/kg/injection, schedule: Q04DX002 (ip), vehicle: saline): 94 % of control

Question: Nc1nc(Cl)c2nnn(C3CC(O)C(CO)C3)c2n1 (centres undefined) was tested. Which T/C (dose: 25.0 mg/kg/injection, schedule: Q01DX009 (ip), vehicle: Klucel (hydroxypropylcellulose) (HPC)) did it give?
Answer: 118 % of control

Question: What about the T/C (dose: 50.0 mg/kg/injection, schedule: Q01DX009 (ip), vehicle: Klucel (hydroxypropylcellulose) (HPC)) of the same molecule?
Answer: 105 % of control

Question: And the T/C [1]?
Answer: 100 % of control

Question: Which T/C (dose: 100.0 mg/kg/injection, schedule: Q01DX001 (ip), vehicle: Klucel (hydroxypropylcellulose) (HPC)) does the source give for COc1ccccc1-n1c(O)c(N=Nc2ccc(C)cc2)c(=O)n(-c2ccccc2)c1=S here?
Answer: 103 % of control

Question: And the T/C (dose: 200.0 mg/kg/injection, schedule: Q01DX001 (ip), vehicle: Klucel (hydroxypropylcellulose) (HPC))?
Answer: 97 % of control

Question: What about the T/C (dose: 400.0 mg/kg/injection, schedule: Q01DX001 (ip), vehicle: Klucel (hydroxypropylcellulose) (HPC)) of the same molecule?
Answer: 91 % of control

Question: With CCN(CC)c1ccc(N=C2C=C(C(=O)Nc3ccc(C(=O)O)cc3)C(=O)c3ccccc32)c(C)c1 as the molecule, how does the T/C [4] read?
Answer: 102 % of control

Question: What about the T/C [6] of the same molecule?
Answer: 100 % of control

Question: And the T/C [8]?
Answer: 102 % of control

Question: Which results are given for O=C(NCCCCc1ccccc1)c1ccc([N+](=O)[O-])s1?
Answer: T/C (dose: 50.0 mg/kg/injection, schedule: Q01DX005 (ip), vehicle: water): 94 % of control; T/C (dose: 100.0 mg/kg/injection, schedule: Q01DX005 (ip), vehicle: water): 87 % of control; T/C (dose: 200.0 mg/kg/injection, schedule: Q01DX005 (ip), vehicle: water): 94 % of control; T/C (dose: 400.0 mg/kg/injection, schedule: Q01DX005 (ip), vehicle: water): 94 % of control

Question: With CCOC(=O)/C(N=O)=C(/O)c1ccncc1 as the molecule, how does the T/C [5] read?
Answer: 96 % of control

Question: And the T/C [7]?
Answer: 102 % of control

Question: How did the T/C (dose: 50.0 mg/kg/injection, schedule: Q01DX Z (ip), vehicle: saline) turn out when Cc1cc2nc(Cc3nc4cc(C)c(C)cc4[nH]3)[nH]c2cc1C was run?
Answer: 105 % of control

Question: And the T/C [4]?
Answer: 92 % of control

Question: What about the T/C (dose: 100.0 mg/kg/injection, schedule: Q01DX Z (ip), vehicle: saline) of the same molecule?
Answer: 95 % of control

Question: And the T/C (dose: 100.0 mg/kg/injection, schedule: Q04DX003 (ip), vehicle: saline)?
Answer: 100 % of control

Question: And the T/C [6]?
Answer: 93 % of control

Question: What about the T/C (dose: 200.0 mg/kg/injection, schedule: Q01DX Z (ip), vehicle: saline) of the same molecule?
Answer: 100 % of control

Question: What about the T/C (dose: 200.0 mg/kg/injection, schedule: Q04DX003 (ip), vehicle: saline) of the same molecule?
Answer: 92 % of control

Question: What about the T/C [8] of the same molecule?
Answer: 90 % of control

Question: What about the T/C (dose: 400.0 mg/kg/injection, schedule: Q01DX Z (ip), vehicle: saline) of the same molecule?
Answer: 97 % of control

Question: What about the T/C (dose: 400.0 mg/kg/injection, schedule: Q04DX003 (ip), vehicle: saline) of the same molecule?
Answer: 86 % of control
